# Measured values: the supplement of paper PMC10307832
# Columns and labels:
# Assay in all cases: relative viability (nuclei count vs DMSO), 5 days (fraction); higher = more cells survive
# NVP-TAE684 + Decitabine = compound: COc1cc(N2CCC(N3CCN(C)CC3)CC2)ccc1Nc1ncc(Cl)c(Nc2ccccc2S(=O)(=O)C(C)C)n1 [NVP-TAE684] + Nc1ncn([C@H]2C[C@H](O)[C@@H](CO)O2)c(=O)n1 [Decitabine] (partner 2 µM)
# Outline: (§1)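 Nuclei were stained with Hoechst during a one-step fixation (final 0.05% Triton X-100, 1% formaldehyde, 1 ug/ml Hoechst) carried out 5 days after dosing, then counted on 4× images. The cells, lung cancer lines in 1536-well plates, had been dosed by pin tool the day after seeding with one drug alone or a fixed anchor-drug dose plus five library-drug doses (not always all listed) in √10 steps. Relative viability is the nuclei count in treated wells divided by that in vehicle wells, and each value is the median of duplicate plates.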
# Vandetanib + Navitoclax = compound: COc1cc2/c(=N/c3ccc(Br)cc3F)nc[nH]c2cc1OCC1CCN(C)CC1 [Vandetanib] + CC1(C)CCC(c2ccc(Cl)cc2)=C(CN2CCN(c3ccc(C(=O)NS(=O)(=O)c4ccc(N[C@H](CCN5CCOCC5)CSc5ccccc5)c(S(=O)(=O)C(F)(F)F)c4)cc3)CC2)C1 [Navitoclax] (partner 0.5 µM)
# Outline: as §1
# [1] = compound: C1=CC=C2C(=C1)N=C(S2)C(C#N)C3=NC(=NC=C3)NCCC4=CN=CC=C4 + C[C@]1(O)C[C@@H](c2nc(-c3ccc4ccc(-c5ccccc5)nc4c3)c3c(N)nccn32)C1 [Linsitinib] (partner 1 µM)
# Outline: as §1
# [2] = compound: C1=CC=C2C(=C1)N=C(S2)C(C#N)C3=NC(=NC=C3)NCCC4=CN=CC=C4 + Cc1nc(Nc2ncc(C(=O)Nc3c(C)cccc3Cl)s2)cc(N2CCN(CCO)CC2)n1 [Dasatinib] (partner 0.075 µM)
# Outline: as §1
Cell Line,relative viability (NVP-TAE684 + Decitabine; first compound 0.2 µM),relative viability (NVP-TAE684 + Decitabine; first compound 0.6325 µM),relative viability (NVP-TAE684 + Decitabine; first compound 2 µM),relative viability (Vandetanib + Navitoclax; first compound 0.02 µM),relative viability (Vandetanib + Navitoclax; first compound 0.06325 µM),relative viability (Vandetanib + Navitoclax; first compound 0.2 µM),relative viability (Vandetanib + Navitoclax; first compound 0.6325 µM),relative viability (Vandetanib + Navitoclax; first compound 2 µM),relative viability ([1]; first compound 0.005 µM),relative viability ([1]; first compound 0.01581 µM),relative viability ([1]; first compound 0.05 µM),relative viability ([1]; first compound 0.1581 µM),relative viability ([1]; first compound 0.5 µM),relative viability ([2]; first compound 0.005 µM),relative viability ([2]; first compound 0.01581 µM),relative viability ([2]; first compound 0.05 µM),relative viability ([2]; first compound 0.1581 µM),relative viability ([2]; first compound 0.5 µM)
EPLC-272H,0.326,0.357,0.299,1.06,1.03,1.14,1,1.09,1.01,1.3,1.12,1.27,1.12,0.283,0.304,0.264,0.374,0.312
NCI-H1755,0.715,0.756,0.667,1.03,0.979,0.968,0.973,0.972,0.968,1.05,0.976,1.07,0.908,0.365,0.397,0.404,0.456,0.384
H3255,0.582,0.547,0.506,0.5,0.421,0.332,0.161,0.108,0.89,1.01,0.908,1.05,1.04,0.312,0.329,0.346,0.509,0.319
NCI-H441,0.235,0.279,0.232,0.627,0.529,0.754,0.368,0.578,–,0.499,0.533,0.617,0.447,–,0.663,0.638,0.473,0.425
NCI-H1793,0.459,0.468,0.361,0.57,0.338,0.488,0.319,0.389,0.782,0.956,0.886,1.25,0.87,0.366,0.419,0.363,0.436,0.435
LK-2,0.24,0.205,0.146,0.761,0.759,0.913,0.936,0.721,0.409,0.736,0.621,0.689,0.555,0.393,0.264,0.243,0.26,0.311
SW 1573,0.526,0.497,0.104,1.03,0.895,1.25,0.862,0.993,0.725,0.776,0.792,0.895,0.745,0.587,0.44,–,0.494,0.324
HCC-78,0.636,0.634,0.49,0.732,0.649,0.828,0.887,0.573,0.492,0.423,0.33,0.582,0.549,0.386,0.337,0.42,0.609,0.407
SK-MES-1,0.41,0.335,0.305,1.26,1.04,1.24,1.27,1.2,1.17,1.07,1.09,1.12,0.97,0.303,0.403,0.394,0.327,0.371
NCI-H2023,0.238,0.199,0.0999,0.898,0.971,1.04,1.01,0.996,0.743,0.695,0.68,0.671,0.701,0.454,0.519,0.504,0.78,0.364
NCI-H2126,0.56,0.603,0.459,0.865,0.859,0.84,0.866,0.727,0.748,0.739,0.705,0.705,0.665,0.603,0.543,0.573,0.584,0.49
RERF-LC-KJ,0.689,0.574,0.3,0.952,0.746,0.835,1.06,0.605,1.01,0.877,0.853,0.861,0.781,0.796,0.863,0.756,0.952,0.527
NCI-H3122,0.152,0.109,0.103,0.99,0.998,1.03,0.994,1.03,1.02,0.992,1.04,1.07,0.999,0.826,0.824,0.873,1.03,0.686
NCI-H322M,0.658,0.619,0.526,1.14,1.1,1.24,1.04,1.15,0.88,1.03,0.899,0.987,0.803,0.232,0.238,0.23,0.259,0.26
NCI-H647,0.388,0.386,0.261,0.943,1.09,1.16,1.17,1.06,–,1.17,1.16,1.25,0.976,0.128,0.188,0.219,0.24,0.135
EMC-BAC-2,0.978,0.946,0.708,1.11,1.11,0.76,1.12,1.06,0.568,0.877,0.785,0.925,0.728,0.334,0.359,0.364,0.388,0.324
PC-14,0.217,0.191,0.0633,1.02,0.953,1.07,0.504,0.307,0.914,1.07,0.972,1.08,0.896,0.174,0.228,0.211,0.32,0.249
201T,–,0.867,0.684,1.1,1.19,1.2,1.15,1.19,1.07,1.01,1.06,1.06,0.974,0.799,0.523,0.599,0.549,0.486
